{"source": "patent US7378419B2", "about": "“9-amino-podophyllotoxin derivatives, method for the production thereof and pharmaceutical compositions containing said derivatives” (Les Laboratoires Servier, priority 2003, dated 2008)", "key": {"[1]": {"tested_on": "L1210 cells", "assay": "Action on the cell cycle (G2+M accumulation)", "assay_type": "cell-based, murine", "conditions": "L1210, after 21 hours, concentration of 250 nM (control: 20%)", "protocol": "The L1210 cells are incubated for 21 hours at 37° C. in the presence of various concentrations of the products tested. The cells then are fixed with 70% ethanol (v/v), washed twice in PBS and incubated for 30 minutes at 20° C. in PBS containing 100 μg/ml of RNase and 50 μg/ml of propidium iodide. The results are expressed as a percentage of cells accumulated in phase G2+M after 21 hours compared to the control (control: 20%). The compounds of examples 2 and 4 induce an accumulation of 70% and 81%, respectively, of the cells in phase G2+M after 21 hours at a concentration of 250 nM."}, "[2]": {"tested_on": "L1210", "assay": "In vitro cytotoxicity, microculture tetrazolium assay, L1210", "assay_type": "cell-based", "conditions": "L1210 murine leukemia, 48 hours exposure", "protocol": "(§1) Six cell lines were used: • 1 murine leukemia: L1210 • 1 human epidermal carcinoma: KB-3-1 • 1 human pulmonary carcinoma, not small cell: A549 • 1 melanoma: A375 • 1 neuroblastoma: SK-N-MC • 1 fibrosarcoma: HT1080\n(§2) The cells are cultivated in complete RPMI 1640 culture medium containing 10% of fetal calf serum, 2 mM of glutamine, 50 U/ml of penicillin, 50 μg/ml of streptomycin and 10 mM of Hepes, pH: 7.4. The cells are distributed in microplates and exposed to cytotoxic compounds for 4 doubling times, which is 48 hours. The number of viable cells is then quantified by a […] assay, the microculture tetrazolium assay (J. Carmichael et al., Cancer Res.; 47, 936-942, (1987)). The results are expressed as IC50, the cytotoxic concentration that inhibits the proliferation of the treated cells by 50%."}, "[3]": {"tested_on": "KB-3-1", "assay": "In vitro cytotoxicity, microculture tetrazolium assay, KB-3-1", "assay_type": "cell-based", "conditions": "KB-3-1 human epidermal carcinoma, 48 hours exposure", "protocol": "as §1, §2"}, "[4]": {"tested_on": "HT1080", "assay": "In vitro cytotoxicity, microculture tetrazolium assay, HT1080", "assay_type": "cell-based", "conditions": "Homo sapiens, HT-1080; HT1080 fibrosarcoma, 48 hours exposure", "protocol": "as §1, §2"}, "[5]": {"tested_on": "A549", "assay": "In vitro cytotoxicity, microculture tetrazolium assay, A549", "assay_type": "cell-based", "conditions": "A549 human pulmonary carcinoma, not small cell, 48 hours exposure", "protocol": "as §1, §2"}, "[6]": {"tested_on": "SK-N-MC", "assay": "In vitro cytotoxicity, microculture tetrazolium assay, SK-N-MC", "assay_type": "cell-based", "conditions": "Homo sapiens; SK-N-MC neuroblastoma, 48 hours exposure", "protocol": "as §1, §2"}, "[7]": {"tested_on": "P388 leukemia", "assay": "In vivo anti-tumor activity on P388 leukemia", "conditions": "P388, 50 mg/kg, intravenously on day 1, female BDF1 mice", "protocol": "The P388 line (murine leukemia) was provided by the National Cancer Institute (Frederick, Md., USA). The tumor cells (10^6 cells) were inoculated on day 0 in the peritoneal cavity of female BDF1 mice (Iffa-Credo, France) weighing from 18 to 20 g (groups of 6 animals). The products were administered intravenously on day 1.\n(§3) The anti-tumor activity is expressed in T/C %: T/C%=(median survival time of the treated animals)/(median survival time of the control animals)×100"}, "[8]": {"tested_on": "A375", "assay": "In vitro cytotoxicity, microculture tetrazolium assay, A375", "assay_type": "cell-based", "conditions": "Homo sapiens, A-375; A375 melanoma, 48 hours exposure", "protocol": "as §1, §2"}, "[9]": {"tested_on": "A549 human pulmonary carcinoma", "assay": "In vivo anti-tumor activity on A549 human pulmonary carcinoma", "conditions": "A549, 3.12 mg/kg", "from_the_text": "*Anti-Tumor Activity of the Compounds on P388 Leukemia and on A549 Human Pulmonary Carcinoma:\nas §3"}}, "data": [{"smiles": "COc1cc([C@@H]2c3cc4c(cc3[C@@H](NC3=CC(=O)N(CCCCCC(=O)O)C3=O)[C@H]3COC(=O)[C@H]23)OCO4)cc(OC)c1O", "values": [{"measurement": "melting point", "value": "150 to 152", "unit": "°C"}]}, {"smiles": "COc1cc([C@@H]2c3cc4c(cc3[C@@H](NC3=CC(=O)N(Cc5ccccc5)C3=O)[C@H]3COC(=O)[C@H]23)OCO4)cc(OC)c1O", "note": "[Example 4, 3-{[(5S,5aS,8aR,9R)-9-(4-Hydroxo-3,5-dimethoxyphenyl)-8-oxo-5,5a,6,8,8a,9-hexahydrofuro[3′,4′:6,7]naphtho[2,3-d][1,3]dioxol-5-yl]amino}-1-benzyl-1H-pyrrole-2,5-dione]", "values": [{"measurement": "percentage of cells accumulated in phase G2+M", "setting": "[1]", "value": 81, "unit": "%"}, {"measurement": "IC50", "setting": "[2]", "value": 29, "unit": "nM"}]}, {"smiles": "COc1cc([C@@H]2c3cc4c(cc3[C@@H](NC3=C(C)C(=O)N(C)C3=O)[C@H]3COC(=O)[C@H]23)OCO4)cc(OC)c1O", "values": [{"measurement": "melting point", "value": "172 to 176", "unit": "°C"}]}, {"smiles": "COc1cc([C@@H]2c3cc4c(cc3[C@@H](NC3=CC(=O)N(Cc5ccc(C(F)(F)F)cc5)C3=O)[C@H]3COC(=O)[C@H]23)OCO4)cc(OC)c1O", "values": [{"measurement": "melting point", "value": "184 to 186", "unit": "°C"}]}, {"smiles": "COc1cc([C@@H]2c3cc4c(cc3[C@@H](NC3=CC(=O)N(Cc5ccc(NC(C)=O)cc5)C3=O)[C@H]3COC(=O)[C@H]23)OCO4)cc(OC)c1O", "values": [{"measurement": "melting point", "value": "200 to 204 °C (dec.)"}]}, {"smiles": "C=CCN1C(=O)C=C(N[C@@H]2c3cc4c(cc3[C@@H](c3cc(OC)c(O)c(OC)c3)[C@H]3C(=O)OC[C@@H]32)OCO4)C1=O", "values": [{"measurement": "melting point", "value": "180 to 183", "unit": "°C"}]}, {"smiles": "COc1cc([C@@H]2c3cc4c(cc3[C@@H](NC3=CC(=O)N(Cc5ccc(F)cc5)C3=O)[C@H]3COC(=O)[C@H]23)OCO4)cc(OC)c1O", "values": [{"measurement": "melting point", "value": "214 to 216", "unit": "°C"}]}, {"smiles": "COc1cc([C@@H]2c3cc4c(cc3[C@@H](NC3=CC(=O)N(Cc5ccc(F)cc5)C3=O)[C@H]3COC(=O)[C@H]23)OCO4)cc(OC)c1O[Si](C)(C)C(C)(C)C", "values": [{"measurement": "melting point", "value": "182 to 184", "unit": "°C"}]}, {"smiles": "COc1cc([C@@H]2c3cc4c(cc3[C@@H](NC3=CC(=O)N(Cc5ccc(NC(C)=O)cc5)C3=O)[C@H]3COC(=O)[C@H]23)OCO4)cc(OC)c1O[Si](C)(C)C(C)(C)C", "values": [{"measurement": "melting point", "value": "177 to 179", "unit": "°C"}]}, {"smiles": "COc1cc([C@@H]2c3cc4c(cc3[C@@H](NC3=CC(=O)N(C)C3=O)[C@H]3COC(=O)[C@H]23)OCO4)cc(OC)c1O", "note": "[Example 2, 3-{[(5S,5aS,8aR,9R)-9-(4-Hydroxy-3,5-dimethoxyphenyl)-8-oxo-5,5a,6,8,8a,9-hexahydrofuro[3′,4′:6,7]naphtho[2,3-d][1,3]dioxol-5-yl]amino}-1-methyl-1H-pyrrole-2,5-dione]", "values": [{"measurement": "IC50", "setting": "[3]", "value": 66.6, "unit": "nM"}, {"measurement": "IC50", "setting": "[4]", "value": 75.8, "unit": "nM"}, {"measurement": "percentage of cells accumulated in phase G2+M", "setting": "[1]", "value": 70, "unit": "%"}, {"measurement": "IC50", "setting": "[5]", "value": 110, "unit": "nM"}, {"measurement": "IC50", "setting": "[6]", "value": 106, "unit": "nM"}, {"measurement": "IC50", "setting": "[2]; Mus musculus", "value": 54, "unit": "nM"}, {"measurement": "T/C (median survival time treated/control x 100)", "setting": "[7]", "value": "> 575", "unit": "%"}, {"measurement": "animals surviving as of day 60", "setting": "[7]", "value": 50, "unit": "%"}, {"measurement": "IC50", "setting": "[8]", "value": 44.2, "unit": "nM"}, {"measurement": "T/C", "setting": "[9]", "value": 225, "unit": "%"}]}]}
